Assay results as given in the supplement of paper PMC9663587.

Experiments:
[1] = compound: CCN1CCN(Cc2ccc(Nc3ncc(F)c(-c4cc(F)c5nc(C)n(C(C)C)c5c4)n3)nc2)CC1
[2] = compound: Cc1nc(-c2cn3c(n2)-c2ccc(-c4cnn(C(C)(C)C(N)=O)c4)cc2OCC3)n(C(C)C)n1 [Taselisib/GDC0032]
[3] = compound: CS(=O)(=O)N1CCN(Cc2cc3nc(-c4cccc5[nH]ncc45)nc(N4CCOCC4)c3s2)CC1 [Pictilisib/GDC0941]
[4] = compound: O=C1NC(=O)[C@@H](c2cn3c4c(cccc24)CCC3)[C@@H]1c1c[nH]c2ccccc12 [Tivantinib/ARQ197]
[5] = compound: COc1ccc2c(c1)[C@]1(C[C@H]1c1ccc3c(/C=C/c4ccc(CN5C[C@@H](C)O[C@@H](C)C5)cc4)n[nH]c3c1)C(=O)N2
[6] = compound: CC[C@@H]1C(=O)N(C)c2cnc(Nc3ccc(C(=O)N[C@H]4CC[C@H](N5CCN(CC6CC6)CC5)CC4)cc3OC)nc2N1C(C)C [Volasertib/BI6727]
[7] = compound: T1, CCOc1cc2ncc(C#N)c(Nc3ccc(OCc4ccccn4)c(Cl)c3)c2cc1NC(=O)/C=C/CN(C)C [Neratinib/HKI272]
[8] = compound: Cc1cc(Nc2ncc(Cl)c(Nc3ccccc3S(=O)(=O)C(C)C)n2)c(OC(C)C)cc1C1CCNCC1 [Ceritinib/LDK378]
[9] = compound: T2, CC(=O)c1c(C)c2cnc(Nc3ccc(N4CCN(CCOCCOCCOCCNC(=O)COc5cccc6c5C(=O)N(C5CCC(=O)NC5=O)C6=O)CC4)cn3)nc2n(C2CCCC2)c1=O [BSJ-03-123]
[10] = compound: T3, CN(C)C(=O)c1cc2cnc(Nc3ccc(N4CCNCC4)cn3)nc2n1C1CCCC1 [LEE011/Ribociclib]
[11] = compound: CC(C)n1nc(-c2ccc3oc(N)nc3c2)c2c(N)ncnc21 [INK128/MLN0128]
[12] = compound: CC(=O)O[C@H]1C(=O)[C@@]2(C)[C@H]([C@H](OC(=O)c3ccccc3)[C@]3(O)C[C@H](OC(=O)[C@H](O)[C@@H](NC(=O)c4ccccc4)c4ccccc4)C(C)=C1C3(C)C)[C@]1(OC(C)=O)CO[C@@H]1C[C@@H]2O [Paclitaxel]
[13] = compound: CN(C)CC[C@H](CSc1ccccc1)Nc1ccc(S(=O)(=O)NC(=O)c2ccc(N3CCN(Cc4ccccc4-c4ccc(Cl)cc4)CC3)cc2)cc1[N+](=O)[O-] [ABT-737]
[14] = compound: CN(C)C/C=C/C(=O)Nc1ccc(C(=O)N2CCC[C@@H](Nc3ncc(Cl)c(-c4c[nH]c5ccccc45)n3)C2)cc1 [THZ531]
[15] = compound: CCN1CCN(Cc2ccc(Nc3ncc(F)c(-c4cc(F)c5nc(C)n(C(C)C)c5c4)n3)nc2)CC1; assay: GR value, 72 h; higher = faster growth (1 = untreated, <0 = killing);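 further: breast cancer and non-malignant breast epithelial lines, nine half-log doses, viable cells counted by Hoechst and LIVE/DEAD dye imaging versus time-zero plates and DMSO controls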
[16] = compound: CCc1cnn2c(NCc3ccc[n+]([O-])c3)cc(N3CCCC[C@H]3CCO)nc12; assay: as above
[17] = compound: T1, Neratinib/HKI272; assay: as above
[18] = compound: T2, BSJ-03-123; assay: as above
[19] = compound: T3, LEE011/Ribociclib; assay: as above
[20] = compound: C=CC(=O)Nc1ccc(C(=O)Nc2[nH]nc3c2CN(C(=O)N[C@H](CN(C)C)c2ccccc2)C3(C)C)cc1 [YKL-5-124]; assay: as above
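Wherever GR50, 72 h is given: breast cancer and non-malignant breast epithelial cell lines, Deep Dye Drop or Dye Drop imaging, nine half-log doses, GR normalized to time-zero plates and DMSO-only controls.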

Which results are given for MCF10A?
GR50, 72 h [1]: 0.34 µM; GR50, 72 h [2]: 0.119 µM; GR50, 72 h [3]: 1.88 µM; GR50, 72 h [4]: 0.181 µM; GR50, 72 h [5]: 0.00588 µM; GR50, 72 h [6]: 0.0221 µM; GR50, 72 h [7]: 0.102 µM; GR50, 72 h [8]: 2.99 µM; GR50, 72 h [9]: 1.09 µM; GR50, 72 h [10]: > 10 µM; GR50, 72 h [11]: 0.0242 µM; GR50, 72 h [12]: 0.00268 µM; GR50, 72 h [13]: > 10 µM; GR50, 72 h [14]: 0.358 µM; GR value ([15]; 0.001 µM): 0.981 GR; GR value ([15]; 0.003162 µM): 0.95 GR; GR value ([15]; 0.01 µM): 0.882 GR; GR value ([15]; 0.03162 µM): 0.78 GR; GR value ([15]; 0.1 µM): 0.665 GR; GR value ([15]; 0.3162 µM): 0.543 GR; GR value ([15]; 1 µM): 0.364 GR; GR value ([15]; 3.162 µM): 0.255 GR; GR value ([15]; 10 µM): 0.159 GR; GR value ([16]; 0.0001 µM): 1.01 GR; GR value ([16]; 0.0003162 µM): 1.01 GR; GR value ([16]; 0.001 µM): 1.02 GR; GR value ([16]; 0.003162 µM): 1.04 GR; GR value ([16]; 0.01 µM): 0.958 GR; GR value ([16]; 0.03162 µM): -0.188 GR; GR value ([16]; 0.1 µM): -0.226 GR; GR value ([16]; 0.3162 µM): -0.223 GR; GR value ([16]; 1 µM): -0.223 GR; GR value ([17]; 0.0003162 µM): 1 GR; GR value ([17]; 0.001 µM): 1 GR; GR value ([17]; 0.003162 µM): 1 GR; GR value ([17]; 0.01 µM): 0.976 GR; GR value ([17]; 0.03162 µM): 0.723 GR; GR value ([17]; 0.1 µM): 0.496 GR; GR value ([17]; 0.3162 µM): 0.304 GR; GR value ([17]; 1 µM): 0.179 GR; GR value ([17]; 3.162 µM): 0.099 GR; GR value ([18]; 0.001 µM): 0.915 GR; GR value ([18]; 0.003162 µM): 0.877 GR; GR value ([18]; 0.01 µM): 0.81 GR; GR value ([18]; 0.03162 µM): 0.76 GR; GR value ([18]; 0.1 µM): 0.736 GR; GR value ([18]; 0.3162 µM): 0.708 GR; GR value ([18]; 1 µM): 0.577 GR; GR value ([18]; 3.162 µM): 0.502 GR; GR value ([18]; 10 µM): -0.113 GR; GR value ([19]; 0.001 µM): 0.91 GR; GR value ([19]; 0.003162 µM): 0.888 GR; GR value ([19]; 0.01 µM): 0.821 GR; GR value ([19]; 0.03162 µM): 0.781 GR; GR value ([19]; 0.1 µM): 0.79 GR; GR value ([19]; 0.3162 µM): 0.756 GR; GR value ([19]; 1 µM): 0.732 GR; GR value ([19]; 3.162 µM): 0.665 GR; GR value ([19]; 10 µM): 0.434 GR; GR value ([20]; 0.001 µM): 0.472 GR; GR value ([20]; 0.003162 µM): 0.235 GR; GR value ([20]; 0.01 µM): 0.149 GR; GR value ([20]; 0.03162 µM): 0.0788 GR; GR value ([20]; 0.1 µM): 0.0321 GR; GR value ([20]; 0.3162 µM): 0.0253 GR; GR value ([20]; 1 µM): 0.0094 GR; GR value ([20]; 3.162 µM): -0.0385 GR; GR value ([20]; 10 µM): -0.153 GR

With SUM229PE as the cell line, how does the “GR50, 72 h” value [1] read?
The value was 0.531 µM.

And the “GR50, 72 h” value [2]?
Its value is 0.377 µM.

And the “GR50, 72 h” value [3]?
The value was 3.92 µM.

What about the “GR50, 72 h” value [4] of the same cell line?
Its value is 0.083 µM.

What about the “GR50, 72 h” value [5] of the same cell line?
The value was 0.00229 µM.

And the “GR50, 72 h” value [6]?
The value was 0.0135 µM.

What about the “GR50, 72 h” value [7] of the same cell line?
Its value is 0.419 µM.

What about the “GR50, 72 h” value [8] of the same cell line?
Its value is 1.68 µM.

And the “GR50, 72 h” value [9]?
The value was 1.64 µM.

What about the “GR50, 72 h” value [10] of the same cell line?
Its value is over 10 µM.

What about the “GR50, 72 h” value [11] of the same cell line?
Its value is 0.047 µM.

And the “GR50, 72 h” value [12]?
The value was 0.00176 µM.

And the “GR50, 72 h” value [13]?
The value was 8.41 µM.

What about the “GR50, 72 h” value [14] of the same cell line?
Its value is 0.314 µM.

What about the GR value ([15]; 0.001 µM) of the same cell line?
Its GR value is 0.924 GR.

And the GR value ([15]; 0.003162 µM)?
Its GR value is 0.888 GR.

What about the GR value ([15]; 0.01 µM) of the same cell line?
The GR value was 0.831 GR.

And the GR value ([15]; 0.03162 µM)?
The GR value was 0.727 GR.

And the GR value ([15]; 0.1 µM)?
Its GR value is 0.611 GR.

What about the GR value ([15]; 0.3162 µM) of the same cell line?
The GR value was 0.56 GR.

And the GR value ([15]; 1 µM)?
Its GR value is 0.439 GR.

And the GR value ([15]; 3.162 µM)?
The GR value was 0.343 GR.

What about the GR value ([15]; 10 µM) of the same cell line?
The GR value was 0.284 GR.

And the GR value ([16]; 0.0001 µM)?
Its GR value is 1.04 GR.

What about the GR value ([16]; 0.0003162 µM) of the same cell line?
The GR value was 1.02 GR.

And the GR value ([16]; 0.001 µM)?
The GR value was 0.991 GR.

And the GR value ([16]; 0.003162 µM)?
The GR value was 1.01 GR.

What about the GR value ([16]; 0.01 µM) of the same cell line?
The GR value was 0.796 GR.

And the GR value ([16]; 0.03162 µM)?
The GR value was -0.122 GR.

What about the GR value ([16]; 0.1 µM) of the same cell line?
The GR value was -0.194 GR.

And the GR value ([16]; 0.3162 µM)?
The GR value was -0.203 GR.

And the GR value ([16]; 1 µM)?
Its GR value is -0.209 GR.

And the GR value ([17]; 0.0003162 µM)?
The GR value was 1.03 GR.

What about the GR value ([17]; 0.001 µM) of the same cell line?
Its GR value is 0.967 GR.

What about the GR value ([17]; 0.003162 µM) of the same cell line?
The GR value was 0.972 GR.

And the GR value ([17]; 0.01 µM)?
Its GR value is 0.951 GR.

What about the GR value ([17]; 0.03162 µM) of the same cell line?
The GR value was 0.952 GR.

And the GR value ([17]; 0.1 µM)?
The GR value was 0.751 GR.

What about the GR value ([17]; 0.3162 µM) of the same cell line?
Its GR value is 0.562 GR.

And the GR value ([17]; 1 µM)?
Its GR value is 0.386 GR.

And the GR value ([17]; 3.162 µM)?
Its GR value is 0.203 GR.

What about the GR value ([18]; 0.001 µM) of the same cell line?
Its GR value is 0.887 GR.

What about the GR value ([18]; 0.003162 µM) of the same cell line?
Its GR value is 0.881 GR.

And the GR value ([18]; 0.01 µM)?
Its GR value is 0.87 GR.

And the GR value ([18]; 0.03162 µM)?
The GR value was 0.857 GR.

What about the GR value ([18]; 0.1 µM) of the same cell line?
The GR value was 0.758 GR.

What about the GR value ([18]; 0.3162 µM) of the same cell line?
The GR value was 0.785 GR.

What about the GR value ([18]; 1 µM) of the same cell line?
The GR value was 0.568 GR.

What about the GR value ([18]; 3.162 µM) of the same cell line?
Its GR value is 0.497 GR.

What about the GR value ([18]; 10 µM) of the same cell line?
The GR value was 0.114 GR.

And the GR value ([19]; 0.001 µM)?
Its GR value is 0.91 GR.

And the GR value ([19]; 0.003162 µM)?
The GR value was 0.911 GR.

And the GR value ([19]; 0.01 µM)?
Its GR value is 0.822 GR.

And the GR value ([19]; 0.03162 µM)?
Its GR value is 0.806 GR.

And the GR value ([19]; 0.1 µM)?
Its GR value is 0.758 GR.

What about the GR value ([19]; 0.3162 µM) of the same cell line?
Its GR value is 0.722 GR.

And the GR value ([19]; 1 µM)?
The GR value was 0.728 GR.

And the GR value ([19]; 3.162 µM)?
Its GR value is 0.633 GR.

And the GR value ([19]; 10 µM)?
The GR value was 0.562 GR.

What about the GR value ([20]; 0.001 µM) of the same cell line?
Its GR value is 0.467 GR.

And the GR value ([20]; 0.003162 µM)?
Its GR value is 0.321 GR.

What about the GR value ([20]; 0.01 µM) of the same cell line?
Its GR value is 0.295 GR.

What about the GR value ([20]; 0.03162 µM) of the same cell line?
The GR value was 0.291 GR.

What about the GR value ([20]; 0.1 µM) of the same cell line?
The GR value was 0.27 GR.

What about the GR value ([20]; 0.3162 µM) of the same cell line?
The GR value was 0.225 GR.

What about the GR value ([20]; 1 µM) of the same cell line?
The GR value was 0.238 GR.

And the GR value ([20]; 3.162 µM)?
The GR value was 0.17 GR.

What about the GR value ([20]; 10 µM) of the same cell line?
Its GR value is -0.0733 GR.
